Activity calls are given as the source filed them.

The nature of series [1]: Toxicity in immunocompetent BALB/c mouse implanted with mouse CT26 cells assessed as punctate necrosis in liver at 20 mg/kg, ip administered for 30 days by H and E staining based analysis. Type of series: organism-based. Particulars: in vivo, 720 h, time 30 day.
Series [2] deals with CT26. The series is described as follows: cells. The settings on record: Mus musculus, CT26, 72 h.
Description: Cytotoxicity against mouse CT26 cells assessed as inhibition of cell growth incubated for 72 hrs by MTT assay
Series [3] in a line: Toxicity in immunocompetent female BALB/c mouse implanted with mouse CT26 cells assessed as body weight loss at 20 mg/kg, ip administered for 30 days. Particulars: in vivo, 720 h, time 30 day. Type of series: organism-based.
The nature of series [4]: Toxicity in immunocompetent BALB/c mouse implanted with mouse CT26 cells assessed as change in spleen size at 20 mg/kg, ip administered for 30 days relative to control group. The settings on record: in vivo, 720 h, time 30 day. Type of series: organism-based.
Series [5] is described as follows: Induction of NAMPT degradation in immunocompetent female BALB/c mouse implanted with mouse CT26 cells assessed as reduction in intracellular NAMPT level in tumor by measuring fold change at 20 mg/kg, ip administered for 30 days by Western blot analysis (reference value: 1.00). Type of series: functional. The settings on record: time 30 day.
For a further series, the system named is SK-OV-3. Description: cells. Particulars: Homo sapiens, SK-OV-3, 72 h.
Series [6] concerns the target von Hippel-Lindau disease tumor suppressor/Nicotinamide phosphoribosyltransferase (Mus musculus, UniProt Q99KQ4+P40338). The series is described as follows: (§1) PROTAC activity at VHL/NAMPT in mouse CT26 cells assessed as induction of intracellular NAMPT degradation incubated for 24 hrs by Western blot analysis. Type of series: cell-based.
Series [7] addresses T1, von Hippel-Lindau disease tumor suppressor/Nicotinamide phosphoribosyltransferase (Mus musculus) (UniProt Q99KQ4+P40338). The description is as §1. It is filed as cell-based.
Series [8] deals with T2, von Hippel-Lindau disease tumor suppressor/Nicotinamide phosphoribosyltransferase (Homo sapiens, UniProt P43490+P40337). Description: PROTAC activity at VHL/NAMPT in human SK-OV-3 cells assessed as induction of intracellular NAMPT degradation incubated for 24 hrs by Western blot analysis relative to control. It is filed as cell-based.
T2 sequence (P43490 whole entry): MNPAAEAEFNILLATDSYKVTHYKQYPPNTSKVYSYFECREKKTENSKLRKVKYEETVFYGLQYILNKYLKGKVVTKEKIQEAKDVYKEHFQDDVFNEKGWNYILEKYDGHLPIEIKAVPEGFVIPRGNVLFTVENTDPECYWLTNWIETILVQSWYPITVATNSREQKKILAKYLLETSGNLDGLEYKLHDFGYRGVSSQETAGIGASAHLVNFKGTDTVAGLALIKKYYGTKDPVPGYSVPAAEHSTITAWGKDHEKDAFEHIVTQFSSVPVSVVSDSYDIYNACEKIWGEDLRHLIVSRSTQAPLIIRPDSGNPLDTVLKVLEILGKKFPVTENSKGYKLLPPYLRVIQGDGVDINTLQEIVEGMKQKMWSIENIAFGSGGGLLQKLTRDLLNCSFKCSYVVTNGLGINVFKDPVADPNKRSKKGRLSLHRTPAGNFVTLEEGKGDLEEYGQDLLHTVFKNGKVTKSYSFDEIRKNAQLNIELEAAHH
T2 sequence (P40337 whole entry): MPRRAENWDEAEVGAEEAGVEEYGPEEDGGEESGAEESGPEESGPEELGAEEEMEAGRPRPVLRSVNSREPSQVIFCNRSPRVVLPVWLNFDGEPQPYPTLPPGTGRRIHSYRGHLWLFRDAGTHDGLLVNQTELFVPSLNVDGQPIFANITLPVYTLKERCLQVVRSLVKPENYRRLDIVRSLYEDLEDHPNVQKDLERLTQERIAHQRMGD
In a further series the test system is MIA PaCa-2. Description: cells. The settings on record: Homo sapiens, MIA PaCa-2, 72 h.
The target of series [9] is T1, von Hippel-Lindau disease tumor suppressor/Nicotinamide phosphoribosyltransferase (Mus musculus). Description: PROTAC activity at VHL/NAMPT in mouse CT26 cells assessed as induction of extracellular NAMPT degradation at 0.1 to 5 uM incubated for 24 hrs by Western blot analysis. Particulars: dose 0.1-5 µM. Type of series: cell-based.
The target in series [10] is T2, von Hippel-Lindau disease tumor suppressor/Nicotinamide phosphoribosyltransferase. The series is described as follows: PROTAC activity at VHL/NAMPT in human MKN-45 cells assessed as induction of intracellular NAMPT degradation incubated for 24 hrs by Western blot analysis relative to control. It is filed as cell-based. A general note: A western blot detects proteins with antibodies after separation by electrophoresis.

For series [11], the target named is Nicotinamide phosphoribosyltransferase (Homo sapiens) (UniProt P43490). The settings on record: SK-OV-3, dose 100.0 nM, time 24.0 hrs.
Sequence of Nicotinamide phosphoribosyltransferase (Homo sapiens) (P43490 whole entry, looked up): as the sequence (P43490 whole entry) above
Series [12] is described as follows: Cmax in male Sprague-Dawley rat at 14 mg/kg, ip measured after 24 hrs by LC/MS-MS analysis. Type of series: ADME, organism-based. Particulars: in vivo.
For series [13], the system named is CT26. Description: Antitumor activity against mouse CT26 cells implanted in immunocompetent female BALB/c mouse model assessed as reduction in IL-6 expression at 20 mg/kg, ip administered for 30 days by ELISA. It is filed as functional, organism-based. Particulars: time 30.0 day. (In general: ELISA stands for enzyme-linked immunosorbent assay.)
For series [14], the system named is CT26. The series is described as follows: Antitumor activity against mouse CT26 cells implanted in immunocompetent female BALB/c mouse model assessed as reduction in tumor size at 20 mg/kg, ip administered for 30 days. Type of series: functional, organism-based. The settings on record: time 30.0 day.
A short description of series [15]: Toxicity in immunocompetent BALB/c mouse implanted with mouse CT26 cells assessed as decrease in spleen index at 20 mg/kg, ip administered for 30 days relative to FK866. Particulars: in vivo, 720 h, time 30 day. Type of series: organism-based.
Series [16] deals with T1, von Hippel-Lindau disease tumor suppressor/Nicotinamide phosphoribosyltransferase (Mus musculus). The series is described as follows: PROTAC activity at VHL/NAMPT in mouse CT26 cells assessed as induction of extracellular NAMPT degradation incubated for 24 hrs by immunoblot analysis. It is filed as cell-based. Particulars: dose 0.1-5 µM.
Series [17] can be described thus: AUC (0 to 24 hrs) in male Sprague-Dawley rat at 14 mg/kg, ip measured after 24 hrs by LC/MS-MS analysis. It is filed as ADME, organism-based. Particulars: in vivo.
Series [18] in a line: Toxicity in immunocompetent BALB/c mouse implanted with mouse CT26 cells assessed as effect on liver histopathology at 20 mg/kg, ip administered for 30 days by H and E staining based analysis. It is filed as organism-based. Particulars: in vivo, 720 h, time 30 day.
Series [19] can be described thus: Apparent volume of distribution during terminal phase in male Sprague-Dawley rat at 14 mg/kg, ip measured after 24 hrs by LC/MS-MS analysis. Type of series: ADME, organism-based. Particulars: in vivo, read-out: Vz/F.
Series [20] deals with T1, von Hippel-Lindau disease tumor suppressor/Nicotinamide phosphoribosyltransferase (Mus musculus). Description: PROTAC activity at VHL/NAMPT in mouse CT26 cells assessed as induction of intracellular NAMPT degradation incubated for 24 hrs by immunoblot analysis. It is filed as cell-based. Particulars: dose 0.1-5 µM.
Series [21] is described as follows: Half-life in male Sprague-Dawley rat at 14 mg/kg, ip measured after 24 hrs by LC/MS-MS analysis. The settings on record: in vivo. Type of series: ADME, organism-based.
Series [22] can be described thus: Tmax in male Sprague-Dawley rat at 14 mg/kg, ip measured after 24 hrs by LC/MS-MS analysis. Type of series: ADME, organism-based. Particulars: in vivo.
Series [23] concerns CT26. The series is described as follows: Antitumor activity against mouse CT26 cells implanted in immunocompetent female BALB/c mouse model assessed as reduction in TNF-alpha expression at 20 mg/kg, ip administered for 30 days by ELISA. It is filed as functional, organism-based. The settings on record: time 30.0 day.
Series [24] has as its system CT26. Description: Antitumor activity against mouse CT26 cells implanted in immunocompetent female BALB/c mouse model assessed as reduction in tumor growth at 20 mg/kg, ip administered for 30 days. Type of series: functional, organism-based. The settings on record: time 30.0 day.

T1 sequence (P40338 whole entry, looked up): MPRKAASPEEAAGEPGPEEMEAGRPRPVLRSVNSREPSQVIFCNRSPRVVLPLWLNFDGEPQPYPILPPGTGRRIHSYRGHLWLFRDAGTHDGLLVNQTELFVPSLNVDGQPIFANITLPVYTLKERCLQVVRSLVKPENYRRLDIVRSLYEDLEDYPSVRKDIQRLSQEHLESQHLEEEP
T1 sequence (Q99KQ4 whole entry, looked up): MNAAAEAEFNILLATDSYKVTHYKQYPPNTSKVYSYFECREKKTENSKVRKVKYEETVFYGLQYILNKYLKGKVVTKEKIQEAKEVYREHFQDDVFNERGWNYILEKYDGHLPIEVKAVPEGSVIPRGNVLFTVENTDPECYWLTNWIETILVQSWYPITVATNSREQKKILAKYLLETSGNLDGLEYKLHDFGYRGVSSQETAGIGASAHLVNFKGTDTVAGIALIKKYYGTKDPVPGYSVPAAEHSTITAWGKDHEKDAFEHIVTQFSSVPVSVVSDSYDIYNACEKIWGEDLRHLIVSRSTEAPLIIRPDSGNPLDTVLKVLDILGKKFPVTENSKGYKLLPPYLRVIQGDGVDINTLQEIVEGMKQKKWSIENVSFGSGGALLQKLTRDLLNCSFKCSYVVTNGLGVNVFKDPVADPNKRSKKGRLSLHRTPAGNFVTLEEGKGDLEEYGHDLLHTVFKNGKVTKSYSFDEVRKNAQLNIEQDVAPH
Sequence of von Hippel-Lindau disease tumor suppressor/Nicotinamide phosphoribosyltransferase (Mus musculus, UniProt Q99KQ4+P40338) (Q99KQ4 whole entry): as the sequence (Q99KQ4 whole entry, looked up) above
Sequence of von Hippel-Lindau disease tumor suppressor/Nicotinamide phosphoribosyltransferase (Mus musculus, UniProt Q99KQ4+P40338) (P40338 whole entry): as the sequence (P40338 whole entry, looked up) above
Description for MIA PaCa-2: Cytotoxicity against human MIA PaCa-2 cells assessed as inhibition of cell growth incubated for 72 hrs by MTT assay
Description for SK-OV-3: Cytotoxicity against human SK-OV-3 cells assessed as inhibition of cell growth incubated for 72 hrs by MTT assay

With `O=C(/C=C/c1cccnc1)NCCCCC1CCN(C(=O)c2ccccc2)CC1` [DAPORINAD], the figures for the Activity result in series [1], in series [3] and in series [4] were “Toxic”, “Non-Toxic” and “Toxic”, respectively. The IC50 in the series on CT26 [2] is 39 nM; in the series with SK-OV-3 it was 6 nM. Besides, the “fold change (FC)” value in series [5] worked out at 1.04.

For `Cc1ncsc1-c1ccc([C@H](C)NC(=O)[C@@H]2C[C@@H](O)CN2C(=O)[C@@H](NC(=O)COCCOCCOCCOCCNC(=O)c2ccc(C(=O)N3CCC(CCCCNC(=O)/C=C/c4cccnc4)CC3)cc2)C(C)(C)C)cc1`, the IC50 with CT26 [2] was 23100 nM; in the series on MIA PaCa-2 it was 4 nM; with SK-OV-3 it was 890 nM. Moreover, the DC50 in [6] is 920 nM; in series [8] it was 25 nM; in series [10], 6.4 nM. Also, the Activity result in [7] is “Dose-Dependent Effect”. In addition, the outcome in series [9] was Active. The inhibition entry in [11] was “Active”.

Turning to `Cc1ncsc1-c1ccc([C@@H](C)NC(=O)[C@H]2C[C@H](O)CN2C(=O)[C@H](NC(=O)COCCOCCOCCNC(=O)c2ccc(C(=O)N3CCC(CCCCNC(=O)/C=C/c4cccnc4)CC3)cc2)C(C)(C)C)cc1`, the Cmax in series [12] stood at 147 ng/mL. Further, the results for the IC50 in the series on CT26 [2], in the series with MIA PaCa-2 and in the series on SK-OV-3 were 25800 nM, 4 nM and 1020 nM, respectively. The result with CT26 [13], in the series with CT26 [14], in the series with CT26 [23] and in the series with CT26 [24] was Active. Further, the DC50 in series [6] was 520 nM. For the same compound, the Activity result in [7] is “Dose-Dependent Effect”; in series [15] it was “Toxic”; in [16] it was “Dose-Dependent Effect”; in [18], “Non-Toxic”; in series [3], “Non-Toxic”; in series [4], “Non-Toxic”. In addition, the Activity entry in series [20] was “Dose-Dependent Effect”. In [17], this compound displayed an AUC(0-t) at 24 h of 919 ng·h/mL. For the same compound, the Vd/F in series [19] worked out at 0.483 L/kg. Further, the half-life in series [21] was 22 h. Moreover, in series [22], the Tmax came to 1 h.

In general, IC50 refers to the concentration at which inhibition is half-maximal. Low readings indicate greater potency, high ones weaker potency. The term DC50 denotes the concentration at which degradation of the target reaches its halfway point. As a reminder, the Cmax is the highest concentration seen after dosing. For orientation: AUC(0-t) means exposure summed from dosing to a finite time, without extrapolation to infinity. A lower AUC(0-t) goes with low exposure. What is called half-life is the time needed for the level to fall by half in the phase considered. Read a high half-life as slow decline. One may read the Tmax as the time from dosing to the highest level.
